Entries after “also recorded” stand apart in the source; their conditions may differ. Where a name gives a salt, the structure may show the parent alone.

The values below come from US20250127716A1, “INHALED IMATINIB FOR TREATMENT OF PULMONARY HYPERTENSION” (JUSTUS-LIEBIG-UNIVERSITAET GIESSEN, priority 2022, published 2025).

Series [1] is described as follows: Formulation of stable concentrated imatinib solutions in different solvents (Examples 1-4). The settings on record: room temperature, one hour.
For series [2], the system named is PAH-patients. As to conditions: oral, cited from earlier work.
Series [3] concerns PAH patients. The settings on record: oral; phase II, 59 patients; cited from earlier work.
The nature of series [4]: In vitro nebulization feasibility, Medspray wet aerosol inhaler single nozzle unit (Example 5). The format is physicochemical. The settings on record: Medspray nozzle pore size 1.9 μm. The protocol: In an in vitro nebulization study, the feasibility to nebulize different imatinib mesylate solutions by the Medspray™ wet aerosol inhaler was evaluated. A 1 ml syringe was filled with the formulation to be tested, a single nozzle unit of Medspray™ wet aerosol inhaler was then fixed on the syringe by a luer adapter. The nozzle pore size was 1.9 μm. The aerosol was produced by pressing the piston of the syringe manually, thereby forcing the solution through the nozzle pores. […] When using ethanol 10% (v/v) or glycerol 1% (v/v), solutions with a concentration of 240 mg/ml were nebulizable; a mixture of ethanol 10% (v/v) and glycerol 1% (v/v) further increased the maximum imatinib concentration of the solution to 250 mg/ml capable of being nebulized.

The conditions of series [5]: cited from earlier work.
Where [6] appears, read: 24-week trial, 202 PAH-patients.

Consider `Cc1ccc(NC(=O)c2ccc(CN3CCN(C)CC3)cc2)cc1Nc1nccc(-c2cccnc2)n1` [Imatinib free base, 4-[(4-methylpiperazin-1-yl)methyl]-N-(4-methyl-3-{[4-(pyridin-3-yl)pyrimidin-2-yl]amino}phenyl)benzamide], for which the “imatinib concentration of stable solution that could be formulated” value in series [1] (a. dest, NaCl 0.9%, citrate buffer 5%, urea 5%, ethanol 10%, glycerol 1%) is ≤ 5 mg/mL.
As for `Cc1ccc(NC(=O)c2ccc(CN3CCN(C)CC3)cc2)cc1Nc1nccc(-c2cccnc2)n1` [Imatinib mesylate], in series [2] (setting [6]), the “6-minute walk distance (primary outcome)” value is on record as “significantly improving; also recorded: significantly improved” and the pulmonary vascular resistance entry was “significantly improved”. In series [3], the “change from baseline in the 6-minute-walk distance (primary endpoint)” value is “not meeting the primary endpoint” and the “pulmonary hemodynamics (secondary endpoint)” value is given as “significantly improved”. Moreover, in series [4] (solvent a. dest), the “maximum concentration capable of being nebulized” value amounted to 210 mg/mL. The “maximum imatinib concentration capable of being nebulized” value in series [4] (solvent ethanol 10% (v/v) and glycerol 1% (v/v)) is 250 mg/mL. The compound further showed a concentration nebulizable in series [4] (solvent ethanol 10% (v/v)) of 240000 µg/mL. In addition, the concentration nebulizable in series [4] (solvent glycerol 1% (v/v)) stood at 240000 µg/mL. In addition, the “stability of resulting solutions” value in series [1] (higher ionic strength solvents of Example 3) is listed as “not stable”. The “concentration of stable imatinib mesylate solution that could be formulated” value in series [1] (higher ionic strength solvents: NaCl 0.9%, HCl/NaOH, citrate, HEPES, trometamol, PBS buffer) was < 50000 µg/mL. Moreover, the “concentration of stable imatinib mesylate solution that could be formulated” value in series [1] (low ionic strength solvents of Example 4 (a. dest, ethanol, urea, glycerol, mannitol, glycols, ectoin)) is reported as “up to 500 mg/ml”. For the same compound, the “inter-subject variation in pharmacokinetics” value in series [5] (in vivo) was “high”. Besides, the bioavailability entry in series [5] (oral) is reported as “almost complete”.
Consider `Cc1ccc(NC(=O)c2ccc(CN3CCN(C)CC3)cc2)cc1Nc1nccc(-c2cccnc2)n1` [imatinib, 4-[(4-methylpiperazin-1-yl)methyl]-N-(4-methyl-3-{[4-(pyridin-3-yl)pyrimidin-2-yl]amino}phenyl)benzamide], for which the “adverse events, side effects and discontinuation” value in series [2] (study and open-label extension phase) was “severe adverse events, significant side effects, and a high discontinuation rate”.
